Measurements as given in BigSolDB 2.1.

Q: For `CC(C)OC(=O)[C@H](C)N[P@](=O)(Oc1ccccc1)Oc1c(F)c(F)c(F)c(F)c1F`, which solubility (mole fraction) (in acetone, 278.15 K) is on record?
A: Its solubility (mole fraction) is 0.00921.

Q: And the solubility (mole fraction) (in acetone, 283.15 K)?
A: Its solubility (mole fraction) is 0.0111.

Q: And the solubility (mole fraction) (in acetone, 288.15 K)?
A: The solubility (mole fraction) was 0.0132.

Q: And the solubility (mole fraction) (in acetone, 293.15 K)?
A: Its solubility (mole fraction) is 0.0159.

Q: What about the solubility (mole fraction) (in acetone, 298.15 K) of the same molecule?
A: The solubility (mole fraction) was 0.019.

Q: What about the solubility (mole fraction) (in acetone, 303.15 K) of the same molecule?
A: The solubility (mole fraction) was 0.0226.

Q: What about the solubility (mole fraction) (in acetone, 308.15 K) of the same molecule?
A: The solubility (mole fraction) was 0.0268.

Q: What about the solubility (mole fraction) (in acetone, 313.15 K) of the same molecule?
A: The solubility (mole fraction) was 0.0315.

Q: And the solubility (mole fraction) (in acetone, 318.15 K)?
A: The solubility (mole fraction) was 0.0371.

Q: And the solubility (mole fraction) (in acetonitrile, 278.15 K)?
A: Its solubility (mole fraction) is 0.00297.

Q: And the solubility (mole fraction) (in acetonitrile, 283.15 K)?
A: Its solubility (mole fraction) is 0.0036.

Q: And the solubility (mole fraction) (in acetonitrile, 288.15 K)?
A: Its solubility (mole fraction) is 0.00439.

Q: What about the solubility (mole fraction) (in acetonitrile, 293.15 K) of the same molecule?
A: Its solubility (mole fraction) is 0.00538.

Q: And the solubility (mole fraction) (in acetonitrile, 298.15 K)?
A: The solubility (mole fraction) was 0.00653.

Q: And the solubility (mole fraction) (in acetonitrile, 303.15 K)?
A: Its solubility (mole fraction) is 0.00787.

Q: And the solubility (mole fraction) (in acetonitrile, 308.15 K)?
A: The solubility (mole fraction) was 0.00941.

Q: What about the solubility (mole fraction) (in acetonitrile, 313.15 K) of the same molecule?
A: The solubility (mole fraction) was 0.0113.

Q: And the solubility (mole fraction) (in acetonitrile, 318.15 K)?
A: Its solubility (mole fraction) is 0.0133.

Q: What about the solubility (mole fraction) (in ethanol, 278.15 K) of the same molecule?
A: Its solubility (mole fraction) is 0.0019.

Q: And the solubility (mole fraction) (in ethanol, 283.15 K)?
A: The solubility (mole fraction) was 0.00234.

Q: What about the solubility (mole fraction) (in ethanol, 288.15 K) of the same molecule?
A: The solubility (mole fraction) was 0.00293.

Q: And the solubility (mole fraction) (in ethanol, 293.15 K)?
A: Its solubility (mole fraction) is 0.00366.

Q: And the solubility (mole fraction) (in ethanol, 298.15 K)?
A: The solubility (mole fraction) was 0.00451.

Q: And the solubility (mole fraction) (in ethanol, 303.15 K)?
A: The solubility (mole fraction) was 0.00556.

Q: And the solubility (mole fraction) (in ethanol, 308.15 K)?
A: Its solubility (mole fraction) is 0.00686.

Q: And the solubility (mole fraction) (in ethanol, 313.15 K)?
A: Its solubility (mole fraction) is 0.00836.

Q: And the solubility (mole fraction) (in ethanol, 318.15 K)?
A: The solubility (mole fraction) was 0.0101.

Q: What about the solubility (mole fraction) (in ethyl acetate, 278.15 K) of the same molecule?
A: Its solubility (mole fraction) is 0.0073.

Q: What about the solubility (mole fraction) (in ethyl acetate, 283.15 K) of the same molecule?
A: The solubility (mole fraction) was 0.00889.

Q: And the solubility (mole fraction) (in ethyl acetate, 288.15 K)?
A: Its solubility (mole fraction) is 0.0108.

Q: What about the solubility (mole fraction) (in ethyl acetate, 293.15 K) of the same molecule?
A: Its solubility (mole fraction) is 0.0132.

Q: And the solubility (mole fraction) (in ethyl acetate, 298.15 K)?
A: Its solubility (mole fraction) is 0.0157.

Q: What about the solubility (mole fraction) (in ethyl acetate, 303.15 K) of the same molecule?
A: Its solubility (mole fraction) is 0.0191.

Q: What about the solubility (mole fraction) (in ethyl acetate, 308.15 K) of the same molecule?
A: The solubility (mole fraction) was 0.0227.

Q: What about the solubility (mole fraction) (in ethyl acetate, 313.15 K) of the same molecule?
A: The solubility (mole fraction) was 0.0269.

Q: What about the solubility (mole fraction) (in ethyl acetate, 318.15 K) of the same molecule?
A: The solubility (mole fraction) was 0.032.

Q: And the solubility (mole fraction) (in isopropanol, 278.15 K)?
A: The solubility (mole fraction) was 0.00118.

Q: And the solubility (mole fraction) (in isopropanol, 283.15 K)?
A: Its solubility (mole fraction) is 0.00156.

Q: What about the solubility (mole fraction) (in isopropanol, 288.15 K) of the same molecule?
A: The solubility (mole fraction) was 0.00204.

Q: And the solubility (mole fraction) (in isopropanol, 293.15 K)?
A: The solubility (mole fraction) was 0.00265.

Q: And the solubility (mole fraction) (in isopropanol, 298.15 K)?
A: The solubility (mole fraction) was 0.00343.

Q: What about the solubility (mole fraction) (in isopropanol, 303.15 K) of the same molecule?
A: The solubility (mole fraction) was 0.00431.

Q: What about the solubility (mole fraction) (in isopropanol, 308.15 K) of the same molecule?
A: Its solubility (mole fraction) is 0.00545.

Q: And the solubility (mole fraction) (in isopropanol, 313.15 K)?
A: The solubility (mole fraction) was 0.00692.

Q: What about the solubility (mole fraction) (in isopropanol, 318.15 K) of the same molecule?
A: The solubility (mole fraction) was 0.00875.

Q: What about the solubility (mole fraction) (in methanol, 278.15 K) of the same molecule?
A: The solubility (mole fraction) was 0.0023.

Q: What about the solubility (mole fraction) (in methanol, 283.15 K) of the same molecule?
A: Its solubility (mole fraction) is 0.0028.

Q: What about the solubility (mole fraction) (in methanol, 288.15 K) of the same molecule?
A: Its solubility (mole fraction) is 0.00347.

Q: And the solubility (mole fraction) (in methanol, 293.15 K)?
A: The solubility (mole fraction) was 0.00423.

Q: And the solubility (mole fraction) (in methanol, 298.15 K)?
A: The solubility (mole fraction) was 0.00519.

Q: What about the solubility (mole fraction) (in methanol, 303.15 K) of the same molecule?
A: Its solubility (mole fraction) is 0.00632.

Q: And the solubility (mole fraction) (in methanol, 308.15 K)?
A: The solubility (mole fraction) was 0.00766.

Q: And the solubility (mole fraction) (in methanol, 313.15 K)?
A: The solubility (mole fraction) was 0.00927.

Q: And the solubility (mole fraction) (in methanol, 318.15 K)?
A: The solubility (mole fraction) was 0.0111.

Q: What about the solubility (mole fraction) (in n-butanol, 278.15 K) of the same molecule?
A: Its solubility (mole fraction) is 0.000812.

Q: What about the solubility (mole fraction) (in n-butanol, 283.15 K) of the same molecule?
A: The solubility (mole fraction) was 0.0011.

Q: And the solubility (mole fraction) (in n-butanol, 288.15 K)?
A: Its solubility (mole fraction) is 0.00152.

Q: And the solubility (mole fraction) (in n-butanol, 293.15 K)?
A: The solubility (mole fraction) was 0.00198.

Q: And the solubility (mole fraction) (in n-butanol, 298.15 K)?
A: Its solubility (mole fraction) is 0.00267.

Q: And the solubility (mole fraction) (in n-butanol, 303.15 K)?
A: Its solubility (mole fraction) is 0.00348.

Q: What about the solubility (mole fraction) (in n-butanol, 308.15 K) of the same molecule?
A: Its solubility (mole fraction) is 0.00463.

Q: What about the solubility (mole fraction) (in n-butanol, 313.15 K) of the same molecule?
A: The solubility (mole fraction) was 0.00609.

Q: What about the solubility (mole fraction) (in n-butanol, 318.15 K) of the same molecule?
A: Its solubility (mole fraction) is 0.00789.

Q: What about the solubility (mole fraction) (in n-propanol, 278.15 K) of the same molecule?
A: Its solubility (mole fraction) is 0.00144.

Q: And the solubility (mole fraction) (in n-propanol, 283.15 K)?
A: The solubility (mole fraction) was 0.00191.

Q: What about the solubility (mole fraction) (in n-propanol, 288.15 K) of the same molecule?
A: Its solubility (mole fraction) is 0.00246.

Q: What about the solubility (mole fraction) (in n-propanol, 293.15 K) of the same molecule?
A: Its solubility (mole fraction) is 0.00311.

Q: What about the solubility (mole fraction) (in n-propanol, 298.15 K) of the same molecule?
A: The solubility (mole fraction) was 0.0039.

Q: And the solubility (mole fraction) (in n-propanol, 303.15 K)?
A: Its solubility (mole fraction) is 0.0049.

Q: What about the solubility (mole fraction) (in n-propanol, 308.15 K) of the same molecule?
A: Its solubility (mole fraction) is 0.00608.

Q: What about the solubility (mole fraction) (in n-propanol, 313.15 K) of the same molecule?
A: The solubility (mole fraction) was 0.00748.

Q: What about the solubility (mole fraction) (in n-propanol, 318.15 K) of the same molecule?
A: Its solubility (mole fraction) is 0.00927.

Q: What about the solubility (mole fraction) (in toluene, 278.15 K) of the same molecule?
A: Its solubility (mole fraction) is 0.00381.

Q: And the solubility (mole fraction) (in toluene, 283.15 K)?
A: The solubility (mole fraction) was 0.00469.

Q: And the solubility (mole fraction) (in toluene, 288.15 K)?
A: The solubility (mole fraction) was 0.00572.

Q: And the solubility (mole fraction) (in toluene, 293.15 K)?
A: Its solubility (mole fraction) is 0.00696.

Q: What about the solubility (mole fraction) (in toluene, 298.15 K) of the same molecule?
A: Its solubility (mole fraction) is 0.00848.

Q: And the solubility (mole fraction) (in toluene, 303.15 K)?
A: The solubility (mole fraction) was 0.0103.

Q: And the solubility (mole fraction) (in toluene, 308.15 K)?
A: The solubility (mole fraction) was 0.0125.

Q: What about the solubility (mole fraction) (in toluene, 313.15 K) of the same molecule?
A: The solubility (mole fraction) was 0.0151.

Q: And the solubility (mole fraction) (in toluene, 318.15 K)?
A: Its solubility (mole fraction) is 0.0181.

Q: And the solubility (mole fraction) (in water, 278.15 K)?
A: Its solubility (mole fraction) is 2.39e-05.

Q: What about the solubility (mole fraction) (in water, 283.15 K) of the same molecule?
A: The solubility (mole fraction) was 3.23e-05.

Q: What about the solubility (mole fraction) (in water, 288.15 K) of the same molecule?
A: Its solubility (mole fraction) is 4.42e-05.

Q: What about the solubility (mole fraction) (in water, 293.15 K) of the same molecule?
A: Its solubility (mole fraction) is 6.06e-05.

Q: What about the solubility (mole fraction) (in water, 298.15 K) of the same molecule?
A: The solubility (mole fraction) was 7.96e-05.

Q: And the solubility (mole fraction) (in water, 303.15 K)?
A: The solubility (mole fraction) was 0.000106.

Q: And the solubility (mole fraction) (in water, 308.15 K)?
A: The solubility (mole fraction) was 0.000137.

Q: And the solubility (mole fraction) (in water, 313.15 K)?
A: Its solubility (mole fraction) is 0.000182.

Q: And the solubility (mole fraction) (in water, 318.15 K)?
A: Its solubility (mole fraction) is 0.000235.
